The numbers were not newly measured in patent US20040116403A1, “Superoxide dismutase mimics for the treatment of ocular disorders and diseases” (priority 2002, published 2004), which cites them from elsewhere.

In series [1] the test system is IL-6 and MIP-2. Conditions: rat stroke model; administration after induction of cerebral ischemia.
The conditions of series [2]: rat stroke model; given either before or after induction of cerebral ischemia.

For `CCn1cc[n+](CC)c1C1=C2C=CC3=[N+]2[Mn]24[n]5c1ccc5C(c1n(CC)cc[n+]1CC)=C1C=CC(=[N+]12)C(c1n(CC)cc[n+]1CC)=c1ccc([n]14)=C3c1n(CC)cc[n+]1CC` [Compound 1], the “expression of pro-inflammatory proteins such as IL-6 and MIP-2” value in series [1] was “attenuation of the increased expression of pro-inflammatory proteins”.

As to `CC[n+]1ccccc1C1=C2C=CC3=[N+]2[Mn]24[n]5c1ccc5C(c1cccc[n+]1CC)=C1C=CC(=[N+]12)C(c1cccc[n+]1CC)=c1ccc([n]14)=C3c1cccc[n+]1CC` [Compound 2], the infarct volume entry in series [2] was “reduces infarct volume”.
